Assay results taken from US20240287124A1, “PRODRUGS OF 4'-SUBSTITUTED NUCLEOSIDE REVERSE TRANSCRIPTASE INHIBITORS” (Merck Sharp & Dohme LLC, priority 2023, published 2024).

Tested on: HIV-1 wild-type (R8) virus
Experiment: Viral KINetics in Green cells (VIKING) assay, HIV-1 replication in MT4-GFP reporter cells
Assay type: cell-based
Details: Human immunodeficiency virus 1, 10% normal human serum, MT4-GFP cells, HIV-1 wild-type (R8); read-out: Viking (10% NHS), IC50
Experimental: Antiviral potency of the compounds was determined based on their ability to block HIV-1 replication in a GFP reporter cell line; this assay is referred to as Viral KINetics in Green cells or VIKING assay. HIV-1 replication was monitored using MT4-gag-GFP clone D3 (hereafter designate MT4-GFP) cells, which are MT4 cells modified to harbor a GFP reporter gene, the expression of which is dependent on the HIV-1 proteins tat and rev. (MT4 is a human T-cell line that is particularly sensitive to HIV-1 replication.) HIV-1 infection of MT4-GFP cells results in GFP expression approximately 24 h post-infection. MT4-GFP cells were maintained at 37° C./5% CO2/90% relative humidity in RPMI 1640 supplemented with 10% fetal bovine serum, 100 U/mL penicillin/streptomycin, and […] G418 to maintain the reporter gene. For infections, MT4-GFP cells were placed in the same medium lacking G418 and infected overnight with HIV-1 wild-type (R8) virus at an approximate multiplicity of infection of 0.01 in the same incubation conditions. Cells were then washed and resuspended in RPMI 1640 containing 10% normal human serum at 2×10^5 cells/mL. Compound plates were prepared by dispensing compounds dissolved in DMSO into wells of 384-well poly D lysine-coated plates (0.2 μl/well) using an ECHO acoustic dispenser. Each compound was tested in a 10-point serial 3-fold dilution (typical final concentrations: 4 μM-0.2 nM). Controls included no inhibitor (DMSO only) and a combination of three antiviral agents as a positive control (efavirenz, indinavir, and an integrase strand transfer inhibitor at final concentrations of 4 μM each). Infected cells were added (50 μL/well) to compound plates and were maintained at 37° C./5% CO2/90% relative humidity. Infected cells were quantified at two time points, approximately 48 h and 72 h post-infection, by counting the number of green cells in each well using an Acumen eX3 scanner. The increase in the number of green cells over ˜24 h period gives the reproductive ratio, R, which is calculated by dividing the number of green cells at 72 h over those at 48 h post-infection. The percent inhibition caused by a test compound is calculated using the following formula: […]
The dose-response curves of each test compound were plotted as % inhibition versus the compound concentration. IC50 values were determined by non-linear 4-parameter fitting of the dose-response curves.

Work on C#C[C@]1(CO)O[C@@H](n2ccc3c(N)nc(Cl)nc32)C[C@@H]1OC(=O)OCc1cccnc1 [Example 166] yielded an IC50 of 6.7 nM.
C#C[C@]1(COC(=O)CCCC)O[C@@H](n2ccc3c(N)nc(Cl)nc32)C[C@@H]1OC(=O)CC [Example 187] was tested, and the IC50 was 27 nM.
C#C[C@]1(CO)O[C@@H](n2ccc3c(NC(=O)CCCCCCC)nc(Cl)nc32)C[C@@H]1O [Example 66, N-(2-chloro-7-((2R,4S,5R)-5-ethynyl-4-hydroxy-5-(hydroxymethyl)tetrahydrofuran-2-yl)-7H-pyrrolo[2,3-d]pyrimidin-4-yl)octanamide] gave an IC50 of 197 nM.
Work on C#C[C@]1(COC(=O)OCc2ccc[nH]c2=O)O[C@@H](n2ccc3c(N)nc(Cl)nc32)C[C@@H]1O [Example 209] yielded an IC50 of 3.9 nM.
For C#C[C@]1(COC(=O)CC23CC(C2)C3)O[C@@H](n2ccc3c(N)nc(Cl)nc32)C[C@@H]1OC(=O)OCCC12CC3CC(CC(C3)C1)C2 [Example 108], the IC50 was 20 nM.
C#C[C@]1(CO)O[C@@H](n2ccc3c(N)nc(Cl)nc32)C[C@@H]1OC(=O)OCC12CC(C1)C2 [Example 110] showed an IC50 of 2.7 nM.
C#C[C@]1(COC(=O)OCc2ccccc2)O[C@@H](n2ccc3c(NC(=O)CCc4ccccc4)nc(Cl)nc32)C[C@@H]1O [Example 202] showed an IC50 of 146 nM.
Compound C#C[C@]1(COC(=O)OCCCCC[C@@H]2SC[C@@H]3NC(=O)N[C@@H]32)O[C@@H](n2ccc3c(N)nc(Cl)nc32)C[C@@H]1O [Example 132] has an IC50 of 3 nM.
Work on C#C[C@]1(CO)O[C@@H](n2ccc3c(N)nc(Cl)nc32)C[C@@H]1OC(=O)C12CC(C1)C2 [Example 105] yielded an IC50 of 3.5 nM.
C#C[C@]1(CO)O[C@@H](n2ccc3c(NC(=O)OCCCCCC)nc(Cl)nc32)C[C@@H]1O [Example 221] was tested, and the IC50 was 710 nM.
C#C[C@]1(COC(=O)OCc2cccnc2)O[C@@H](n2ccc3c(N)nc(Cl)nc32)C[C@@H]1OC(=O)OCC [Example 172] showed an IC50 of 25 nM.
C#C[C@]1(COC(=O)CCCC)O[C@@H](n2ccc3c(N)nc(Cl)nc32)C[C@@H]1OC(C)=O [Example 186] showed an IC50 of 25 nM.
With C#C[C@]1(COC(=O)CC23CC(C2)C3)O[C@@H](n2ccc3c(N)nc(Cl)nc32)C[C@@H]1O [Example 97] the IC50 was 1.6 nM.
In the case of C#C[C@]1(COC(=O)OCc2ccccc2)O[C@@H](n2ccc3c(NC(=O)CCc4ccccc4)nc(Cl)nc32)C[C@@H]1OC(=O)OCc1ccccc1 [Example 203], the IC50 is reported as 47 nM.
For C#C[C@]1(CO)O[C@@H](n2ccc3c(NC(=O)OCc4ccccc4)nc(Cl)nc32)C[C@@H]1O [Example 72, benzyl (2-chloro-7-((2R,4S,5R)-5-ethynyl-4-hydroxy-5-(hydroxymethyl)tetrahydrofuran-2-yl)-7H-pyrrolo[2,3-d]pyrimidin-4-yl)carbamate], the IC50 was 544 nM.
C#C[C@]1(COC(=O)OCc2cccnc2)O[C@@H](n2ccc3c(N)nc(Cl)nc32)C[C@@H]1OC(=O)OCc1cccnc1 [Example 164] was tested, and the IC50 was 13 nM.
With C#C[C@]1(COC(=O)CCCC[C@@H]2SC[C@@H]3NC(=O)N[C@@H]32)O[C@@H](n2ccc3c(N)nc(Cl)nc32)C[C@@H]1OC(=O)OCC [Example 196] the IC50 was 27 nM.
Work on C#C[C@]1(CO)O[C@@H](n2ccc3c(N)nc(Cl)nc32)C[C@@H]1OC(=O)OCc1ccc[nH]c1=O [Example 201] yielded an IC50 of 2.6 nM.
For C#C[C@]1(CO)O[C@@H](n2ccc3c(N(C(=O)CCC45CC6CC(CC(C6)C4)C5)C(=O)CCC45CC6CC(CC(C6)C4)C5)nc(Cl)nc32)C[C@@H]1O [Example 217], the IC50 was > 4030 nM.
C#C[C@]1(COC(=O)OCc2ccc[nH]c2=O)O[C@@H](n2ccc3c(N)nc(Cl)nc32)C[C@@H]1OC(=O)OCc1ccccc1 [Example 94] gave an IC50 of 6.1 nM.
With C#C[C@]1(CO)O[C@@H](n2ccc3c(N(C(=O)OCCCCCC)C(=O)OCCCCCC)nc(Cl)nc32)C[C@@H]1O [Example 222] the IC50 was 1370 nM.
Work on C#C[C@]1(COC(=O)OCCC23CC(C2)C3)O[C@@H](n2ccc3c(N)nc(Cl)nc32)C[C@@H]1OC(=O)OCCC12CC(C1)C2 [Example 169] yielded an IC50 of 13 nM.
Work on C#C[C@]1(CO)O[C@@H](n2ccc3c(N)nc(Cl)nc32)C[C@@H]1OCOC(=O)C(C)C [Example 140] yielded an IC50 of 5 nM.
Work on C#C[C@]1(COC(=O)Cc2ccc(Cl)cc2)O[C@@H](n2ccc3c(N)nc(Cl)nc32)C[C@@H]1OC(=O)OCCC12CC3CC(CC(C3)C1)C2 [Example 107] yielded an IC50 of 74 nM.
In the case of C#C[C@]1(COC(=O)OCc2ccn(C)c(=O)c2)O[C@@H](n2ccc3c(N)nc(Cl)nc32)C[C@@H]1OC(=O)OCc1ccccc1 [Example 162], the IC50 is reported as 8.9 nM.
For C#C[C@]1(CO)O[C@@H](n2ccc3c(NC(=O)CCC45CC6CC(CC(C6)C4)C5)nc(Cl)nc32)C[C@@H]1O [Example 69, 3-(adamantan-1-yl)-N-(2-chloro-7-((2R,4S,5R)-5-ethynyl-4-hydroxy-5-(hydroxymethyl)tetrahydrofuran-2-yl)-7H-pyrrolo[2,3-d]pyrimidin-4-yl)propanamide], the IC50 was 10 nM.
Work on C#C[C@]1(COC(=O)OCc2cccnc2)O[C@@H](n2ccc3c(N)nc(Cl)nc32)C[C@@H]1OC(=O)OCc1ccccc1 [Example 85] yielded an IC50 of 3.2 nM.
C#C[C@]1(COCOC(=O)Oc2ccccc2)O[C@@H](n2ccc3c(N)nc(Cl)nc32)C[C@@H]1O [Example 135] was tested, and the IC50 was 3.8 nM.
Work on C#C[C@]1(COC(=O)CC(C)(C)c2c(C)cc(C)cc2OC(C)=O)O[C@@H](n2ccc3c(N)nc(Cl)nc32)C[C@@H]1O [Example 183] yielded an IC50 of 2.7 nM.
Work on C#C[C@]1(CO)O[C@@H](n2ccc3c(NC(=O)CCCCCCCCCCCCC)nc(Cl)nc32)C[C@@H]1O [Example 70, N-(2-chloro-7-((2R,4S,5R)-5-ethynyl-4-hydroxy-5-(hydroxymethyl)tetrahydrofuran-2-yl)-7H-pyrrolo[2,3-d]pyrimidin-4-yl)tetradecanamide] yielded an IC50 of 58 nM.
C#C[C@]1(CO)O[C@@H](n2ccc3c(N)nc(Cl)nc32)C[C@@H]1OC(=O)CC12CC(C1)C2 [Example 96] gave an IC50 of 7.1 nM.
C#C[C@]1(COC(=O)[C@H](C)c2ccccc2)O[C@@H](n2ccc3c(N)nc(Cl)nc32)C[C@@H]1OC(=O)[C@H](C)c1ccccc1 [Example 98] was tested, and the IC50 was 91 nM.
For C#C[C@]1(CO)O[C@@H](n2ccc3c(NC(=O)OCCCCCCCCCCCCCC)nc(Cl)nc32)C[C@@H]1O [Example 63, Tetradecyl (2-chloro-7-((2R,4S,5R)-5-ethynyl-4-hydroxy-5-(hydroxymethyl)tetrahydrofuran-2-yl)-7H-pyrrolo[2,3-d]pyrimidin-4-yl)carbamate], the IC50 was 1490 nM.
C#C[C@]1(CO)O[C@@H](n2ccc3c(N)nc(Cl)nc32)C[C@@H]1OC(=O)OCc1cc[nH]c(=O)c1 [Example 159] gave an IC50 of 14 nM.
In the case of C#C[C@]1(COC(=O)O[C@@H](C)c2ccccc2)O[C@@H](n2ccc3c(N)nc(Cl)nc32)C[C@@H]1O [Example 127], the IC50 is reported as 3.8 nM.
Compound C#C[C@]1(CO)O[C@@H](n2ccc3c(NC(=O)OCCC45CC6CC(CC(C6)C4)C5)nc(Cl)nc32)C[C@@H]1O [Example 148] has an IC50 of 339 nM.
C#C[C@]1(CO)O[C@@H](n2ccc3c(NC(=O)OCCCCCCCCCC)nc(Cl)nc32)C[C@@H]1O [Example 71, Decyl(2-chloro-7-((2R,4S,5R)-5-ethynyl-4-hydroxy-5-(hydroxymethyl)tetrahydrofuran-2-yl)-7H-pyrrolo[2,3-d]pyrimidin-4-yl)carbamate] was tested, and the IC50 was 785 nM.
With C#C[C@]1(CO)O[C@@H](n2ccc3c(N(C(=O)OCCCCCCCCCCCC)C(=O)OCCCCCCCCCCCC)nc(Cl)nc32)C[C@@H]1O [Example 218] the IC50 was > 4030 nM.
With C#C[C@]1(CO)O[C@@H](n2ccc3c(N)nc(Cl)nc32)C[C@@H]1OC(=O)OCCC12CC(C1)C2 [Example 111] the IC50 was 5.2 nM.
For C#C[C@]1(COC(=O)Cc2ccc(Cl)cc2)O[C@@H](n2ccc3c(NC(=O)CCc4ccccc4)nc(Cl)nc32)C[C@@H]1O [Example 147], the IC50 was 55 nM.
C#C[C@]1(CO)O[C@@H](n2ccc3c(N(C(=O)OCCCCCCCCCC)C(=O)OCCCCCCCCCC)nc(Cl)nc32)C[C@@H]1O [Example 220] showed an IC50 of 615 nM.
C#C[C@]1(CO)O[C@@H](n2ccc3c(N)nc(Cl)nc32)C[C@@H]1OC(=O)OCc1cccn(C)c1=O [Example 67, (2R,3S,5R)-5-(4-amino-2-chloro-7H-pyrrolo[2,3-d]pyrimidin-7-yl)-2-ethynyl-2-(hydroxymethyl)tetrahydrofuran-3-yl ((1-methyl-2-oxo-1,2-dihydropyridin-3-yl)methyl) carbonate] was tested, and the IC50 was 6.4 nM.
Compound C#C[C@]1(COC(=O)CCCCC)O[C@@H](n2ccc3c(N)nc(Cl)nc32)C[C@@H]1OC(=O)OCc1cccnc1 [Example 192] has an IC50 of 6.5 nM.
C#C[C@]1(COC(=O)OCCCc2ccccc2)O[C@@H](n2ccc3c(N)nc(Cl)nc32)C[C@@H]1O [Example 128] showed an IC50 of 3 nM.
